Target: unphosphorylated-BTK kinase domain (UP-BTK), GST-tagged human BTK (389-659aa) (Homo sapiens (Human), UniProt Q06187)
Experiment: BTK Kinase Lanthascreen Binding Assay
Details: Lanthascreen binding, 60 minutes incubation; pIC50 = negative log of the IC50 in molar
Method: BTK Kinase Lanthascreen Binding Assay:
A BTK kinase lanthascreen binding assay monitors compound binding to unphosphorylated-BTK kinase domain (UP-BTK), by competing with a fluorescent labeled tracer. […] Data were analyzed using Xlfit™ version 5.3 from ID Business Solutions (Guildford), Microsoft Excel add-in. pIC50 refers to the negative log of the IC50 in molar.

unphosphorylated-BTK kinase domain (UP-BTK), GST-tagged human BTK (389-659aa), sequence (Q06187 389-659): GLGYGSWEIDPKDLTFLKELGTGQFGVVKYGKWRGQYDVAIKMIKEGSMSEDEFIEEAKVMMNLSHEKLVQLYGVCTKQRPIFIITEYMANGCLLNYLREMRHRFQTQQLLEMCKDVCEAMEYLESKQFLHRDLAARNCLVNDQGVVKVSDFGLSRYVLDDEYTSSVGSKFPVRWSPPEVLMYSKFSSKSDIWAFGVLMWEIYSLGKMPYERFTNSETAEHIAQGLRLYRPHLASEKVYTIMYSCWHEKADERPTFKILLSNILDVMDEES

| SMILES | BTK_I_binding pIC50 |
| --- | --- |
| C=CC(=O)N[C@H]1CCC[C@H]1NC(=O)c1sc2nccc3c2c1NC(=O)N3c1cnc(OC(C)C)cc1C (single isomer, unassigned) [Example 426, N-((1R,2S)-2-Acrylamidocyclopentyl)-5-(*S)-(6-isopropoxy-4-methylpyridin-3-yl)-4-oxo-4,5-dihydro-3H-1-thia-3,5,8-triazaacenaphthylene-2-carboxamide] | 8.20 |
| C=CC(=O)N[C@H]1CCC[C@H]1NC(=O)c1sc2nccc3c2c1NC(=O)N3c1ccc(Oc2cccnc2)cn1 [Example 491, N-((1R,2S)-2-Acrylamidocyclopentyl)-4-oxo-5-(5-(pyridin-3-yloxy)pyridin-2-yl)-4,5-dihydro-3H-1-thia-3,5,8-triazaacenaphthylene-2-carboxamide] | 7.43 |
| Cc1cc(OC(C)C)ncc1N1C(=O)Nc2c(C(=O)N[C@@H]3CCC[C@@H]3N)sc3nccc1c23 (single isomer, unassigned) [Example 428, N-((1R,2S)-2-Aminocyclopentyl)-5-(*S)-(6-isopropoxy-4-methylpyridin-3-yl)-4-oxo-4,5-dihydro-3H-1-thia-3,5,8-triazaacenaphthylene-2-carboxamide] | 6.67 |
| Cc1cc(OCC(C)C)ncc1N1C(=O)Nc2c(C(=O)N[C@@H]3CC[C@H](N)C3)sc3nccc1c23 (single isomer, unassigned) [Example 405, N-((1R,3S)-3-Aminocyclopentyl)-5-(*S)-(6-isobutoxy-4-methylpyridin-3-yl)-4-oxo-4,5-dihydro-3H-1-thia-3,5,8-triazaacenaphthylene-2-carboxamide] | 6.16 |
| C=CC(=O)N[C@H]1CCC[C@H]1NC(=O)c1sc2nccc3c2c1NC(=O)N3c1ccc(Oc2cccnc2C)cn1 [Example 493, N-((1R,2S)-2-Acrylamidocyclopentyl)-5-(5-((2-methylpyridin-3-yl)oxy)pyridin-2-yl)-4-oxo-4,5-dihydro-3H-1-thia-3,5,8-triazaacenaphthylene-2-carboxamide] | 7.32 |
| CC(C)c1cc(N2C(=O)Nc3c(C(=O)N[C@@H]4CCC[C@H]4N)sc4nccc2c34)ccn1 [Example 336, N-((1R,2R)-2-Aminocyclopentyl)-5-(2-isopropylpyridin-4-yl)-4-oxo-4,5-dihydro-3H-1-thia-3,5,8-triazaacenaphthylene-2-carboxamide] | 6.01 |
| C=CC(=O)N[C@H]1CCC[C@H]1NC(=O)c1sc2nccc3c2c1NC(=O)N3c1ccc(Oc2ncccn2)nc1C [Example 468, N-((1R,2S)-2-Acrylamidocyclopentyl)-5-(2-methyl-6-(pyrimidin-2-yloxy)pyridin-3-yl)-4-oxo-4,5-dihydro-3H-1-thia-3,5,8-triazaacenaphthylene-2-carboxamide] | 6.52 |

More lines, now with the values ahead:

| BTK_I_binding pIC50 | SMILES |
| --- | --- |
| 7.40 | C=CC(=O)N[C@H]1CCC[C@H]1NC(=O)c1sc2nccc3c2c1NC(=O)N3c1cnc(Oc2cccnc2)cc1C [Example 490, N-((1R,2S)-2-Acrylamidocyclopentyl)-5-(4-methyl-6-(pyridin-3-yloxy)pyridin-3-yl)-4-oxo-4,5-dihydro-3H-1-thia-3,5,8-triazaacenaphthylene-2-carboxamide] |
| 8.17 | C=CC(=O)N[C@@H]1CC[C@H](NC(=O)c2sc3nccc4c3c2NC(=O)N4c2cnc(Oc3ccccc3)cc2C)C1 (single isomer, unassigned) [Example 430, N-((1S,3R)-3-Acrylamidocyclopentyl)-5-(*S)-(4-methyl-6-phenoxypyridin-3-yl)-4-oxo-4,5-dihydro-3H-1-thia-3,5,8-triazaacenaphthylene-2-carboxamide] |
| 7.72 | CC(=O)NC1CCC[C@@H](NC(=O)c2sc3nccc4c3c2NC(=O)N4c2cnc(Oc3ccccc3)cc2C)C1 (single isomer, unassigned) [Example 422, N-((1R,3R)-3-Acetamidocyclohexyl)-5-(*S)-(4-methyl-6-phenoxypyridin-3-yl)-4-oxo-4,5-dihydro-3H-1-thia-3,5,8-triazaacenaphthylene-2-carboxamide] |
| 6.83 | CC(=O)N[C@H]1CCCC[C@H]1NC(=O)c1sc2nccc3c2c1NC(=O)N3c1cnc(Oc2ccccc2)cc1C (single isomer, unassigned) [Example 377, N-((1R,2S)-2-Acetamidocyclohexyl)-5-(*S)-(4-methyl-6-phenoxypyridin-3-yl)-4-oxo-4,5-dihydro-3H-1-thia-3,5,8-triazaacenaphthylene-2-carboxamide] |

Same assay, conditions: compound, 50 nM Tracer 236, 2 nM anti-GST antibody, 60 minutes; pIC50 = negative log of the IC50 in molar

| SMILES | BTK_I_binding pIC50 |
| --- | --- |
| C=CC(=O)N[C@@H]1CCCC[C@H]1NC(=O)c1sc2nccc3c2c1NC(=O)N3c1ccc(OC(C)C)cc1C (single isomer, unassigned) [Example 264, N-((1R,2R)-2-Acrylamidocyclohexyl)-5-(*R)-(4-isopropoxy-2-methylphenyl)-4-oxo-4,5-dihydro-3H-1-thia-3,5,8-triazaacenaphthylene-2-carboxamide] | 6.26 |
| Cc1cc(Oc2ccccc2)ccc1N1C(=O)Nc2c(C(=O)N[C@@H]3CCC[C@@H]3N)sc3nccc1c23 (single isomer, unassigned) [Example 115, N-((1R,2S)-2-Aminocyclopentyl)-5-(*S)-(2-methyl-4-phenoxyphenyl)-4-oxo-4,5-dihydro-3H-1-thia-3,5,8-triazaacenaphthylene-2-carboxamide] | 7.57 |
| CC(=O)N[C@@H]1CC[C@H](NC(=O)c2sc3nccc4c3c2NC(=O)N4c2ccc(Oc3ccccc3)cc2C)C1 [Example 70, N-((1S,3R)-3-Acetamidocyclopentyl)-5-(2-methyl-4-phenoxyphenyl)-4-oxo-4,5-dihydro-3H-1-thia-3,5,8-triazaacenaphthylene-2-carboxamide] | 7.69 |
| C=CC(=O)N[C@@H]1CCC[C@H](NC(=O)c2sc3nccc4c3c2NC(=O)N4c2ccc(OC(C)C)cc2C)C1 (single isomer, unassigned) [Example 190, N-((1S,3R)-3-Acrylamidocyclohexyl)-5-(*R)-(4-isopropoxy-2-methylphenyl)-4-oxo-4,5-dihydro-3H-1-thia-3,5,8-triazaacenaphthylene-2-carboxamide] | 7.10 |
| O=C(N[C@@H]1CCC[C@H](O)C1)c1sc2nccc3c2c1NC(=O)N3c1ccc(Oc2ccccc2)cc1 [Example 142, N-((1R,3S)-3-Hydroxycyclohexyl)-4-oxo-5-(4-phenoxyphenyl)-4,5-dihydro-3H-1-thia-3,5,8-triazaacenaphthylene-2-carboxamide] | 6.87 |
| Cc1cc(Oc2ccccc2)ccc1N1C(=O)Nc2c(C(=O)N[C@@H]3CCC[C@H]3N)sc3nccc1c23 (single isomer, unassigned) [Example 120, N-((1R,2R)-2-Aminocyclopentyl)-5-(*S)-(2-methyl-4-phenoxyphenyl)-4-oxo-4,5-dihydro-3H-1-thia-3,5,8-triazaacenaphthylene-2-carboxamide] | 7.54 |
| N[C@@H]1CCCC[C@H]1NC(=O)c1sc2nccc3c2c1NC(=O)N3c1ccc(Oc2ccccc2)cc1 [Example 149, N-((1R,2R)-2-Aminocyclohexyl)-4-oxo-5-(4-phenoxyphenyl)-4,5-dihydro-3H-1-thia-3,5,8-triazaacenaphthylene-2-carboxamide] | 6.45 |
| C=CC(=O)N[C@@H]1CC[C@@H](NC(=O)c2sc3nccc4c3c2NC(=O)N4c2ccnc(-c3ccccc3)c2)C1 [Example 212, N-((1R,3R)-3-Acrylamidocyclopentyl)-4-oxo-5-(2-phenylpyridin-4-yl)-4,5-dihydro-3H-1-thia-3,5,8-triazaacenaphthylene-2-carboxamide] | 7.49 |
| C=CC(=O)N[C@H]1CCC[C@H]1NC(=O)c1sc2nccc3c2c1NC(=O)N3c1ccc(Oc2ccccc2)cc1 [Example 104, N-((1R,2S)-2-acrylamidocyclopentyl)-4-oxo-5-(4-phenoxyphenyl)-4,5-dihydro-3H-1-thia-3,5,8-triazaacenaphthylene-2-carboxamide] | 8.37 |

Second part, the molecule after the results:

| BTK_I_binding pIC50 | SMILES |
| --- | --- |
| 5.35 | Cc1cc(Oc2ccccc2)ccc1N1C(=O)Nc2c(C(=O)NC3CCCC3)sc3nccc1c23 [Example 82, N-Cyclopentyl-5-(*R)-(2-methyl-4-phenoxyphenyl)-4-oxo-4,5-dihydro-3H-1-thia-3,5,8-triazaacenaphthylene-2-carboxamide] |
| 6.14 | CCC(=O)N[C@H]1CCC[C@@H]1NC(=O)c1sc2nccc3c2c1NC(=O)N3c1ccc(Oc2ccccc2)cc1C [Example 45, 5-(2-Methyl-4-phenoxyphenyl)-4-oxo-N-((1S,2S)-2-propionamidocyclopentyl)-4,5-dihydro-3H-1-thia-3,5,8-triazaacenaphthylene-2-carboxamide] |
| 7.11 | CNCC(=O)N[C@H]1CCCC[C@H]1NC(=O)c1sc2nccc3c2c1NC(=O)N3c1ccc(Oc2ccccc2)cc1C (single isomer, unassigned) [Example 125, 5-(*S)-(2-Methyl-4-phenoxyphenyl)-N-((1R,2S)-2-(2-(methylamino)acetamido)cyclohexyl)-4-oxo-4,5-dihydro-3H-1-thia-3,5,8-triazaacenaphthylene-2-carboxamide] |
| 7.10 | Cc1cc(Oc2ccccc2)ccc1N1C(=O)Nc2c(C(=O)N[C@@H]3CCC[C@@H]3NC(=O)CN(C)C)sc3nccc1c23 (single isomer, unassigned) [Example 128, N-((1R,2S)-2-(2-(Dimethylamino)acetamido)cyclopentyl)-5-(*S)-(2-methyl-4-phenoxyphenyl)-4-oxo-4,5-dihydro-3H-1-thia-3,5,8-triazaacenaphthylene-2-carboxamide] |

Same assay, conditions: read-out: BTK_I_binding pIC50 (converted)

| IC50 [nM] | SMILES |
| --- | --- |
| > 1000 | N[C@@H]1CCCC[C@H]1NC(=O)c1sc2nccc3c2c1NC(=O)N3c1ccc(Oc2ccccc2)nc1 [Example 277, N-((1R,2R)-2-Aminocyclohexyl)-4-oxo-5-(6-phenoxypyridin-3-yl)-4,5-dihydro-3H-1-thia-3,5,8-triazaacenaphthylene-2-carboxamide] |

Reference: patent US10934310B2, “Inhibitors of Bruton's tyrosine kinase and method of their use” (JANSSEN PHARMACEUTICA NV, priority 2015, dated 2021)
